Data from US20250136581A1, “SUBSTITUTED TRIAZOLE DERIVATIVE, PREPARATION METHOD THEREFOR, PHARMACEUTICAL COMPOSITION THEREOF, AND USE THEREOF” (SHANGHAI SIMR BIOTECHNOLOGY CO., LTD., priority 2021, published 2025).

molecular target: human α5β3γ2 receptors (α5-GABAA receptor) (Homo sapiens (Human), UniProt P18507+P31644); experiment: 3H-flunitrazepam competition binding, human α5β3γ2 GABAA receptor; details: HEK293 cell membranes, 1 nM 3H-flunitrazepam; read-out: α5-GABAAR Ki
Protocol: The affinity of the compound to each subtype of GABAA receptor was determined by competing for the binding of ^3H-flunitrazepam to HEK293 cells stably expressing human α1β3γ2, α2β3γ2, α3β3γ2, and α5β3γ2 receptors.
The cells were suspended in 50 mM Tris-HCl buffer (pH=7.4), homogenized 10 times on ice with a homogenizer for 20 seconds, and centrifuged at 1000 g for 10 minutes at 4° C. The supernatant was collected, and the above steps were repeated. The supernatant was centrifuged at 4° C. (33800 g; Thermo, rotor: A27-8×50) for 60 minutes, and the precipitate was resuspended in Tris buffer (50 mM Tris-HCl, 10 mM MgCl2, 0.5 mM EDTA, 10% glycerol). Protein was measured (BCA method, Pierce), and 1 mL aliquots were prepared and stored at −80° C.
The radioligand competition binding assay was performed in a 200 μL system (96-well plate) containing 100 μL of cell membrane. The concentration of ^3H-flunitrazepam was 1 nM and the concentration of the test compound was in the range of […]. Flumazenil was used as a control. 1 μL of 2 mM flumazenil (final concentration […]) was added to the low signal control well (Low control, LC), and 1 μL of DMSO was added to the high signal control well (High control, HC). The final concentration of target membrane protein was […]. All test compound sample storage solutions were 10 mM. The working concentration of the samples was to dilute all the samples to 0.2 mM with DMSO, followed by 4-fold serial gradient dilutions for a total of 8 concentration gradients. The 96-well plate was sealed with a sealing film, and then incubated on a shaker at room temperature for 1 hour. At the same time, the GF/C filter plate was soaked in soaking buffer (0.3% PEI, stored at 4° C.) for at least 0.5 hours. After the binding incubation was completed, the cells were collected onto a GF/C filter plate using a cell harvester. The plate was washed four times with washing buffer (50 mM Tris-HCl, pH 7.4, stored at 4° C.). After drying in a 50° C. oven for 1 hour, the bottom of the dried GF/C filter plate was sealed. The residual radioactivity on the filter membrane was detected using liquid scintillation counting. 50 μL of scintillation fluid was added to each well, and the plate was sealed. The readings were taken using a Microbeta2. The inhibitory activity of the test sample on the binding of ^3H-flunitrazepam to GABAA receptor membrane proteins was calculated, and the IC50 of each test sample was calculated by dose-effect curve fitting (GraphPad Prism 5 software), and the Ki of the sample was calculated from the IC50, thus evaluating the binding ability of the sample to the various subtypes of GABAA receptors.

Compared with `CCNC(=O)C1C2CN(c3ccc(OCc4c(C)nnn4-c4ccc(C(F)F)cc4)nn3)CC21` (stereo not drawn) [Example 39, 3-(6-((1-(4-(Difluoromethyl)phenyl)-4-methyl-1H-1,2,3-triazol-5-yl)methoxy)pyridazin-3-yl)-N-ethyl-3-azabicyclo[3.1.0]hexane-6-carboxamide], `O=C1CN(c2ccc(OCc3c(CC4CC4)nnn3-c3ccc(C(F)F)cc3)nn2)CCN1` [Example 186] is 2.9-fold higher in Ki: 1.59 nM for the first, 4.62 nM for the second. The first binds more tightly here.

Going from `Cc1nnc(C2CN(c3ccc(OCc4c(C)nnn4-c4ccc(C(F)F)cc4)nn3)C2)o1` [Example 53, 2-(1-(6-((1-(4-(Difluoromethyl)phenyl)-4-methyl-1H-1,2,3-triazol-5-yl)methoxy)pyridazin-3-yl)azetidin-3-yl)-5-methyl-1,3,4-oxadiazole] to `Cc1nnn(-c2ccc(C(F)F)cc2)c1COc1ccc(N2CCn3cnnc3C2)nn1` [Example 84, 7-(6-((1-(4-(Difluoromethyl)phenyl)-4-methyl-1H-1,2,3-triazol-5-yl)methoxy)pyridazin-3-yl)-5,6,7,8-tetrahydro-[1,2,4]triazolo[4,3-a]pyrazine], the Ki falls from 2.97 nM to 0.6 nM (5-fold).

Compared with `Cc1nnn(-c2ccc(C(F)F)cc2)c1COc1ccc(N2CC(C(=O)NC3CCOC3)C2)nn1` (stereo not drawn) [Example 51, 1-(6-((1-(4-(Difluoromethyl)phenyl)-4-methyl-1H-1,2,3-triazol-5-yl)methoxy)pyridazin-3-yl)-N-(tetrahydrofuran-3-yl)azetidine-3-carboxamide], `CC(=O)NC1CCN(c2ccc(OCc3c(C)nnn3-c3ccc(C(F)F)cc3)nn2)C1` (stereo not drawn) [Example 88, N-(1-(6-((1-(4-(Difluoromethyl)phenyl)-4-methyl-1H-1,2,3-triazol-5-yl)methoxy)pyridazin-3-yl)pyrrolidin-3-yl)acetamide] is 3.5-fold lower in Ki: 6.17 nM for the first, 1.78 nM for the second.

First: Cc1nnn(-c2ccc(C(F)F)cc2)c1COc1ccc(N2CC(=O)N3CCS(=O)(=O)C[C@@H]3C2)nn1 [Example 176, (S)-8-(6-((1-(4-(Difluoromethyl)phenyl)-4-methyl-1H-1,2,3-triazol-5-yl)methoxy)pyridazin-3-yl)hexahydropyrazino[2,1-c][1,4]thiazin-6(1H)-one 2,2-dioxide]
Second: Cc1nnn(-c2ccc(C(F)F)cc2)c1COc1ccnc(N2CCNC(=O)C2)n1 [Example 213, 4-(4-((1-(4-(Difluoromethyl)phenyl)-4-methyl-1H-1,2,3-triazol-5-yl)methoxy)pyrimidin-2-yl)piperazin-2-one]
The Ki of the first is 40-fold lower: 1.34 nM for the first, 54.1 nM for the second.

Compared with `Cc1nnn(-c2ccc(C(F)F)cc2)c1COc1ccc(N2CCN(CCCc3ccc(Cl)cc3)C(=O)C2)nn1` [Example 144, 1-(3-(4-Chlorophenyl)propyl)-4-(6-((1-(4-(difluoromethyl)phenyl)-4-methyl-1H-1,2,3-triazol-5-yl)methoxy)pyridazin-3-yl)piperazin-2-one], `Cc1nnn(-c2ccc(C(F)F)cc2)c1COc1ccc(N2CC[C@@H]3CCNC(=O)[C@@H]3C2)nn1` (relative stereo) [Example 123, cis-7-(6-((1-(4-(Difluoromethyl)phenyl)-4-methyl-1H-1,2,3-triazol-5-yl)methoxy)pyridazin-3-yl)octahydro-2,7-naphthyridin-1(2H)-one] is 4.4-fold higher in Ki: 1.63 nM for the first, 7.2 nM for the second. The first binds more tightly here.

Going from `Cc1nnn(-c2ccc(C(F)F)cc2F)c1COc1ccc(N2CCNC(=O)C2)nn1` [Example 167, 4-(6-((1-(4-(Difluoromethyl)-2-fluorophenyl)-4-methyl-1H-1,2,3-triazol-5-yl)methoxy)pyridazin-3-yl)piperazin-2-one] to `Cc1nnn(-c2ccc(Cl)cn2)c1COc1ccc(N2CCNC(=O)C2)nn1` [Example 72, 4-(6-((1-(5-Chloropyridin-2-yl)-4-methyl-1H-1,2,3-triazol-5-yl)methoxy)pyridazin-3-yl)piperazin-2-one], the Ki falls from 1.08 nM to 0.46 nM (2.3-fold).

Compared with `COCCNC(=O)C1CN(c2ccc(OCc3c(C)nnn3-c3ccc(C(F)F)cc3)nn2)C1` [Example 49, 1-(6-((1-(4-(Difluoromethyl)phenyl)-4-methyl-1H-1,2,3-triazol-5-yl)methoxy)pyridazin-3-yl)-N-(2-methoxyethyl)azetidine-3-carboxamide], `Cc1nnn(-c2ccc(C(F)F)cc2)c1COc1ccc(N2CCN3CC(C(C)(C)C)NC(=O)[C@@H]3C2)nn1` (single isomer, unassigned) [Example 202] is 2.8-fold lower in Ki: 6.5 nM for the first, 2.32 nM for the second. The second binds more tightly here.

`Cc1nnn(-c2ccc(C(F)F)cc2)c1COc1ccc(N2CCN(Cc3ncccn3)C(=O)C2)nn1` [Example 93, 4-(6-((1-(4-(Difluoromethyl)phenyl)-4-methyl-1H-1,2,3-triazol-5-yl)methoxy)pyridazin-3-yl)-1-(pyrimidin-2-ylmethyl)piperazin-2-one] and “4-(6-((1-(4-(Difluoromethyl)phenyl)-4-methyl-1H-1,2,3-triazol-5-yl)methoxy)pyridin-3-yl)-1-methyl-1,4-diazepan-2-one [Example 17]” are within 1.5-fold of each other in Ki: 3.14 nM for the first, 4.32 nM for the second.

Going from `Cc1nnn(-c2ccc(C(F)F)cc2)c1COc1ccc(N2CCN(C3CN(C(C)C)C3)C(=O)C2)nn1` [Example 142, 4-(6-((1-(4-(Difluoromethyl)phenyl)-4-methyl-1H-1,2,3-triazol-5-yl)methoxy)pyridazin-3-yl)-1-(1-isopropylazetidin-3-yl)piperazin-2-one] to `COc1cc(OCc2c(C)nnn2-c2ccc(C(F)F)cc2)nnc1N1CCNC(=O)C1` [Example 135, 4-(6-((1-(4-(Difluoromethyl)phenyl)-4-methyl-1H-1,2,3-triazol-5-yl)methoxy)-4-methoxypyridazin-3-yl)piperazin-2-one], the Ki falls from 1.8 nM to 1.05 nM (1.7-fold). The second binds more tightly here.

`CCNC(=O)CC1CN(c2ccc(OCc3c(C)nnn3-c3ccc(C(F)F)cc3)nn2)CCO1` (stereo not drawn) [Example 63, 2-(4-(6-((1-(4-(Difluoromethyl)phenyl)-4-methyl-1H-1,2,3-triazol-5-yl)methoxy)pyridazin-3-yl)morpholin-2-yl)-N-ethylacetamide] and `Cc1nnn(-c2ccc(C(F)F)cc2)c1COc1ccc(N2CCN(CCN3CCC(F)(F)CC3)C(=O)C2)nn1` [Example 109, 4-(6-((1-(4-(Difluoromethyl)phenyl)-4-methyl-1H-1,2,3-triazol-5-yl)methoxy)pyridazin-3-yl)-1-(2-(4,4-difluoropiperidin-1-yl)ethyl)piperazin-2-one] are within 1.5-fold of each other in Ki: 1.49 nM for the first, 1.53 nM for the second.

`CCNC(=O)C1=CCCN(c2ccc(OCc3c(C)nnn3-c3ccc(C(F)F)cc3)nn2)C1` [Example 172, 1-(6-((1-(4-(Difluoromethyl)phenyl)-4-methyl-1H-1,2,3-triazol-5-yl)methoxy)pyridazin-3-yl)-N-ethyl-1,2,5,6-tetrahydropyridine-3-carboxamide] and `Cc1cc(N2CCNC(=O)C2)nnc1OCc1c(C)nnn1-c1ccc(C(F)F)cc1` [Example 81, 4-(6-((1-(4-(Difluoromethyl)phenyl)-4-methyl-1H-1,2,3-triazol-5-yl)methoxy)-5-methylpyridazin-3-yl)piperazin-2-one] are within 1.5-fold of each other in Ki: 0.67 nM for the first, 0.56 nM for the second.

First: CCNC(=O)[C@H]1CCN1c1ccc(OCc2c(C)nnn2-c2ccc(C(F)F)cc2)nn1 [Example 40]
Second: O=C1NCCN2CCN(c3ccc(OCc4c(CC5CC5)nnn4-c4ccc(C(F)F)cc4)nn3)C[C@@H]12 [Example 187, (S)-8-(6-((4-(Cyclopropylmethyl)-1-(4-(difluoromethyl)phenyl)-1H-1,2,3-triazol-5-yl)methoxy)pyridazin-3-yl)hexahydro-2H-pyrazino[1,2-a]pyrazin-1(6H)-one]
The Ki of the first is 3-fold higher: 33.6 nM for the first, 11.1 nM for the second. The second binds more tightly here.

`Cc1nnn(-c2ccc(C(F)F)cc2)c1COc1ccc(N2CC(C(=O)NCc3ccccc3)C2)nn1` [Example 48, N-Benzyl-1-(6-((1-(4-(difluoromethyl)phenyl)-4-methyl-1H-1,2,3-triazol-5-yl)methoxy)pyridazin-3-yl)azetidine-3-carboxamide] and `Cc1nnn(-c2ccc(C(F)F)cc2)c1COc1ccc(N2CCN[C@H](C(N)=O)C2)nn1` [Example 32, (S)-4-(6-((1-(4-(Difluoromethyl)phenyl)-4-methyl-1H-1,2,3-triazol-5-yl)methoxy)pyridazin-3-yl)piperazine-2-amide] are within 1.5-fold of each other in Ki: 2.38 nM for the first, 2.94 nM for the second.

With `O=C1CN(c2ccc(OCc3c(C(F)(F)F)nnn3-c3ccc(C(F)F)cc3)nn2)CCN1` [Example 191, 4-(6-((1-(4-(Difluoromethyl)phenyl)-4-(trifluoromethyl)-1H-1,2,3-triazol-5-yl)methoxy)pyridazin-3-yl)piperazin-2-one] the Ki was 3.27 nM.
